The values that follow come from patent US11542273B2, “Amide compound having bet proteolysis-inducing action and medicinal application thereof” (MITSUBISHI TANABE PHARMA CORPORATION, priority 2018, dated 2023).

Test [1] has as its system human Burkitt lymphoma Raji cell. As to the kind of experiment: Cytotoxic action on cancer cells (WST-8, 96 hr). The format is cell-based. As to conditions: 96 hr culture. The procedure, abridged: (§1)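 Viability was read by WST-8 after 96 hr of compound exposure, normalised to untreated wells, with cells pre-cultured overnight in 10% FBS/RPMI1640 at 37 °C and 5% CO2. IC50 comes from a straight line between the two survival points enclosing 50%.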
Background: Tetrazolium dyes change colour on reduction, which living cells bring about.

Test [2] concerns human acute myeloid leukemia MV-4-11 cell. As to the kind of experiment: Cytotoxic action on cancer cells (WST-8, 96 hr). It counts as cell-based. As to conditions: MV4-11, MV-4-11 cells, 96 hr culture. The essentials:
as §1

In test [3] the test system is human breast cancer ZR-75-1 cell. As to the kind of experiment: Cytotoxic action on cancer cells (WST-8, 96 hr). As to conditions: ZR-75-1 cells, 96 hr culture. It counts as cell-based. The procedure, abridged: as §1
Test [4] relates to human chronic myeloid leukemia K562 cell. As to the kind of experiment: Cytotoxic action on cancer cells (WST-8, 96 hr). Particulars: 96 hr culture. The format is cell-based. The procedure, abridged:
as §1

Test [5] relates to human diffuse large B-cell lymphoma SU-DHL-6 cell. As to the kind of experiment: Cytotoxic action on cancer cells (WST-8, 96 hr). The format is cell-based. Particulars: SU-DHL-6 cells, 96 hr culture. The procedure, abridged: as §1
The subject of test [6] is human gastric cancer SNU-16 cell. As to the kind of experiment: Cytotoxic action on cancer cells (WST-8, 96 hr). It counts as cell-based. As to conditions: SNU-16 cells, 96 hr culture. The essentials: as §1
Test [7] concerns human glioma U-87 MG cell. As to the kind of experiment: Cytotoxic action on cancer cells (WST-8, 96 hr). It counts as cell-based. Particulars: U-87 MG cells, 96 hr culture. The essentials: as §1
Test [8] relates to human large cell lung cancer NCI-H460 cell. As to the kind of experiment: Cytotoxic action on cancer cells (WST-8, 96 hr). The format is cell-based. As to conditions: 96 hr culture. The essentials:
as §1

In test [9] the test system is human multiple myeloma MM.1S cell. Put plainly: Cytotoxic action on cancer cells (WST-8, 96 hr). The format is cell-based. Particulars: MM1.S, MM.1S cells, 96 hr culture. The procedure, abridged:
as §1

In test [10] the test system is human non-small cell lung cancer NCI-H1975 cell. Put plainly: Cytotoxic action on cancer cells (WST-8, 96 hr). It counts as cell-based. Particulars: 96 hr culture. The procedure, abridged:
as §1

The subject of test [11] is human pancreatic cancer AsPC-1 cell. As to the kind of experiment: Cytotoxic action on cancer cells (WST-8, 96 hr). The format is cell-based. Particulars: ASPC1, AsPC-1 cells, 96 hr culture. The procedure, abridged: as §1
Test [12] concerns human prostate cancer LNCaP cells. Put plainly: Cytotoxic action on cancer cells (WST-8, 96 hr). The format is cell-based. As to conditions: Homo sapiens, LNCaP, 96 h, read-out: LNCaP cytotoxic activity: IC50. The essentials: as §1
Test [13] relates to human triple negative breast cancer MDA-MB-231 cell. Put plainly: Cytotoxic action on cancer cells (WST-8, 96 hr). As to conditions: MDA-MB-231 cells, 96 hr culture. It counts as cell-based. The essentials:
as §1

A further test addresses BRD4 protein (Homo sapiens (Human), UniProt O60885). As to the kind of experiment: BRD4 protein degradation inducing action in cancer cells (immunofluorescence, Operetta). The format is cell-based. As to conditions: LNCaP cells, 6 hr treatment, fluorescence intensity. The essentials:
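DC50 = compound concentration reducing BRD4 immunofluorescence to 50% of untreated cells, interpolated between the two flanking concentrations. Treatment: LNCaP cells, 6 hr, 10% FBS/RPMI1640, 37° C. Cells were then fixed, permeabilized, stained with anti-BRD4 and Alexa Fluor 488 or 546 secondaries, and imaged.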

The test system of test [14] is human acute myeloid leukemia MV-4-11 cell transplanted mouse. As to the kind of experiment: Antitumor effect in human acute myeloid leukemia MV-4-11 cell transplanted mouse. It counts as in vivo. Particulars: MV4-11, iv, 360 h, read-out: tumor growth inhibitory rate. The method, then:
The in vivo antitumor effect of the compound of the present invention was studied using human acute myeloid leukemia MV-4-11 cell transplanted mouse. MV-4-11 cells were subcutaneously transplanted into the inguinal region of male, 6-week-old BALB/c nude mouse (5×10^6 cells/mouse). The compound of the present invention was administered into the tail vein on days 1, 5, 9, 13 from the time point when the assumed tumor volume determined from 1/2ab^2 (a is major axis and b is minor axis of tumor) reached about 100 mm^3 (day 1). The control group was administered with a solvent, 10% hydroxypropyl-β-cyclodextrin solution. On day 15, the tumor was isolated, the weight was measured, and the tumor growth inhibitory rate IR (%) was calculated by the following formula. tumor growth inhibitory rate IR (%)=(1−tumor weight of administration group/tumor weight of nonadministration control group)×100

The structures appear in SMILES notation.

In the case of `COC(=O)C[C@@H]1N=C(c2ccc(-c3ccc(C(=O)N[C@H](C(=O)N4C[C@H](O)C[C@H]4C(=O)N[C@@H](C)c4ccc(-c5scnc5C)cc4)C(C)(C)C)c(Cl)c3)cc2)c2c(sc(C)c2C)-n2c(C)nnc21` [Example 157, methyl {(6S)-4-[3′-chloro-4′-({(2S)-1-[(2S,4R)-4-hydroxy-2-({(1S)-1-[4-(4-methyl-1,3-thiazol-5-yl)phenyl]ethyl}carbamoyl)pyrrolidin-1-yl]-3,3-dimethyl-1-oxobutan-2-yl}carbamoyl)[1,1′-biphenyl]-4-yl]-2,3,9-trimethyl-6H-thieno[3,2-f][1,2,4]triazolo[4,3-a][1,4]diazepin-6-yl}acetate], the IC50 was found to be 0.59 nM in [1]; 0.029 nM in test [2]; 2 nM in test [3]; 1.2 nM in [4]; 0.39 nM in test [5]; 1.2 nM in test [6]. Further, the IC50 is 18 nM in test [7]; 23 nM in test [8]; 0.081 nM in [9]; 2.2 nM in test [10]; 23 nM in test [11]; 0.4 nM in test [12]. Besides, the midpoint of inhibition in test [13], the IC50, lay at 1.8 nM. For the same compound, the DC50 at BRD4 protein is 0.38 nM. Also, the inhibition in vivo at 1 mg/kg in test [14] amounted to 95.5%. The inhibition in vivo at 3 mg/kg in test [14] amounted to 98.2%.
For `COC(=O)C[C@@H]1N=C(c2ccc(-c3ccc(OCC(=O)N[C@H](C(=O)N4C[C@H](O)C[C@H]4C(=O)N[C@@H](C)c4ccc(-c5scnc5C)cc4)C(C)(C)C)c(C#N)c3)cc2)c2c(sc(C)c2C)-n2c(C)nnc21` [Example 9, methyl [(6S)-4-{3′-cyano-4′-[2-({(2S)-1-[(2S,4R)-4-hydroxy-2-({(1S)-1-[4-(4-methyl-1,3-thiazol-5-yl)phenyl]ethyl}carbamoyl)pyrrolidin-1-yl]-3,3-dimethyl-1-oxobutan-2-yl}amino)-2-oxoethoxy][1,1′-biphenyl]-4-yl}-2,3,9-trimethyl-6H-thieno[3,2-f][1,2,4]triazolo[4,3-a][1,4]diazepin-6-yl]acetate], the IC50 stood at 1.9 nM in test [1]; 0.015 nM in [2]; 0.96 nM in [3]; 2.2 nM in test [4]; 0.57 nM in test [5]; 3 nM in test [6]. For the same compound, the IC50 in test [7] is 9.1 nM; in test [8], 24 nM; in [9], 0.14 nM; in test [10] it was 3.7 nM; in [11], 30 nM; in test [12] it was 0.16 nM. In test [13], this compound yielded a half-maximal inhibitory concentration (IC50) of 5.7 nM. This compound also displayed a DC50 at BRD4 protein of 0.15 nM. In [14], the inhibition in vivo at 1 mg/kg stood at 98.5%. Moreover, the inhibition in vivo at 5 mg/kg in test [14] was 98.4%.
For the compound `COC(=O)C[C@@H]1N=C(c2ccc(N3CC[C@@H](Oc4ccc5oc(C(=O)N[C@H](C(=O)N6C[C@H](O)C[C@H]6C(=O)N[C@@H](C)c6ccc(-c7scnc7C)cc6)C(C)(C)C)cc5c4)C3)cc2)c2c(sc(C)c2C)-n2c(C)nnc21` [Example 142, methyl [(6S)-4-{4-[(3R)-3-{[2-({(2S)-1-[(2S,4R)-4-hydroxy-2-({(1S)-1-[4-(4-methyl-1,3-thiazol-5-yl)phenyl]ethyl}carbamoyl)pyrrolidin-1-yl]-3,3-dimethyl-1-oxobutan-2-yl}carbamoyl)-1-benzofuran-5-yl]oxy}pyrrolidin-1-yl]phenyl}-2,3,9-trimethyl-6H-thieno[3,2-f][1,2,4]triazolo[4,3-a][1,4]diazepin-6-yl]acetate], the IC50 in test [1] worked out at 0.71 nM; in test [2] it was 0.041 nM; in [3], 0.49 nM; in test [4], 2.1 nM; in test [5] it was 0.93 nM; in test [6] it was 0.55 nM. Besides, the concentration for half-maximal inhibition (IC50) in test [7] came out at 4 nM; in [8], 11 nM; in [9], 0.23 nM; in test [10], 1.8 nM; in test [11] it was 5.7 nM; in test [12], 0.3 nM. Moreover, the IC50 in test [13] turned out to be 0.98 nM. For the same compound, the DC50 at BRD4 protein is 0.72 nM. The inhibition in vivo at 3 mg/kg in test [14] came out at 97.4%.

One may read the IC50 as the concentration at which inhibition is half-maximal. What is called DC50 is the concentration giving 50% degradation.
